# Results published in the supplement of paper PMC10307832.
# Compound: CCOc1cc2ncc(C#N)c(Nc3ccc(OCc4ccccn4)c(Cl)c3)c2cc1NC(=O)/C=C/CN(C)C [Neratinib]
# Experiment: relative viability (nuclei count vs DMSO), 5 days (fraction); higher = more cells survive
# Method in brief: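 A plate was accepted only when its control CV was below 25% and the cells had doubled at least once. Viability is defined from nuclear counts as treated wells divided by vehicle wells, with the median taken across plates. That median covers lung cancer cell lines grown in 1536-well plates, dosed by pinning at five √10-spaced library-drug concentrations, and counted in MetaXpress from 4× Hoechst images after 5 days.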
Cell Line,relative viability (0.01 µM),relative viability (0.1 µM),relative viability (0.3162 µM),relative viability (1 µM),relative viability (0.03162 µM)
COR-L 105,0.904,0.687,0.329,0.297,–
LK-2,1.12,0.988,0.718,0.499,1.05
PC-3 [JPC-3],1.07,0.947,0.687,0.471,1.12
UMC-11,0.901,0.748,0.898,0.832,1.14
NCI-H2085,0.977,0.871,0.891,0.814,1.01
NCI-H441,1.32,0.89,–,0.529,1.15
NCI-H1666,1,0.884,0.76,0.78,1.03
SW 900,–,0.772,0.94,0.94,1.05
NCI-H2126,1.03,0.904,0.907,0.553,0.998
LU99A,0.948,0.908,0.891,0.646,1.04
HCC-366,1.05,–,1.01,–,1.1
EKVX,1.04,0.812,0.43,0.25,0.976
NCI-H1755,–,0.858,1.02,1.05,1.01
NCI-H727,–,0.639,0.884,0.624,0.878
LC-2-ad,1.01,0.915,0.738,0.797,1.03
NCI-H1793,1.11,0.682,0.749,0.527,1
HCC-827,1.09,0.982,0.679,0.183,1.13
HCC-78,1.07,0.892,0.87,0.475,1.03
NCI-H2087,1.15,0.829,0.883,0.644,0.894
SK-LU-1,1.1,–,0.979,0.46,1.2
NCI-H2342,0.949,0.765,0.582,0.66,1.01
A-427,1.19,1.01,0.949,0.986,1.1
H3255,1.07,0.78,0.327,0.224,0.985
HCC-44,1.06,1.01,0.943,1.06,1.01
NCI-H1734,1.05,0.914,0.929,0.734,1.05
NCI-H23,1.1,0.811,0.922,0.739,1.15

Cell Line,relative viability (0.01 µM),relative viability (0.1 µM),relative viability (0.3162 µM),relative viability (1 µM),relative viability (0.03162 µM)
ABC-1,1.06,0.898,0.777,0.364,1.06
COR-L23,1.21,0.87,1.02,0.86,1.17
PC-14,1.1,0.964,0.732,0.211,1.13
NCI-H2009,1.01,0.989,0.927,0.96,1.05
NCI-H1437,1.05,0.95,0.94,0.95,1.03
NCI-H647,1.07,0.931,–,0.483,1
201T,1.01,0.929,1.02,0.934,0.996
NCI-H358,0.949,0.556,0.275,0.242,0.792
ChaGo-K-1,0.995,0.896,0.865,0.971,1.12
NCI-H1650,0.985,0.833,0.68,0.694,0.906
LOU-NH91,0.988,0.796,0.691,0.676,0.92
HOP-62,1.02,0.934,0.914,1.09,1.15
NCI-H1915,1.07,0.972,0.916,1.05,1.03
NCI-H322M,0.956,0.784,0.491,0.288,0.926
NCI-H1651,1.04,0.952,0.907,0.822,1.08
EBC-1,1.02,0.872,0.993,0.813,1.12
RERF-LC-KJ,1,0.86,0.806,0.556,0.998
NCI-H661,1.1,0.808,0.57,0.448,0.999
NCI-H1993,1.03,0.719,0.685,0.731,0.837
NCI-H460,–,0.865,0.978,0.981,1.11
NCI-H838,1,0.88,0.946,0.532,1.02
SK-MES-1,1.06,0.91,0.463,0.298,1.09
NCI-H1792,1.33,0.808,–,0.813,1.19
NCI-H1355,1.11,0.833,0.933,0.826,1.02
NCI-H596,1.01,0.984,1.09,0.817,1.03
A549,1.06,0.856,0.911,0.516,1.07

Cell Line,relative viability (0.01 µM),relative viability (0.1 µM),relative viability (0.3162 µM),relative viability (1 µM),relative viability (0.03162 µM)
NCI-H2405,1.06,0.989,0.98,0.739,1.07
LCLC-97TM1,1.05,0.955,0.689,0.696,1.08
EMC-BAC-2,1.32,0.977,0.935,0.722,1.01
NCI-H1975,1.07,0.905,0.58,0.244,1.1
NCI-H1648,0.819,0.657,0.383,0.432,0.931
BEN,–,1.03,0.849,0.753,1.18
NCI-H1703,1.16,0.909,0.778,0.388,0.951
NCI-H2347,1.07,0.904,1.08,–,1.08
NCI-H650,1.02,1.12,0.662,0.877,1.04
CAL-12T,1.06,0.868,0.631,0.301,1.09
EPLC-272H,0.867,0.841,0.666,0.358,0.869
LCLC-103H,0.996,0.897,1.07,0.989,0.997
NCI-H3122,–,0.931,0.991,0.5,1.02
HCC-15,1.04,0.932,0.878,0.886,1.15
SW 1573,1.09,0.828,0.912,0.716,1.18
NCI-H1944,1.18,0.865,0.767,0.569,0.977
HARA,1.02,0.668,0.663,0.644,1.05
NCI-H1563,1.03,0.915,0.864,0.706,1.07
NCI-H2228,–,0.973,0.858,0.223,1.21
LXF-289,1.03,0.948,1.05,1.01,1.07
NCI-H520,1.11,0.937,0.922,0.649,1.07
NCI-H1395,0.994,0.992,0.917,0.654,0.948
NCI-H2170,0.995,0.62,0.26,0.24,0.994
NCI-H2023,0.997,–,0.881,0.707,0.824
